Literature values in paper PMC8819907 (Journal of Experimental & Clinical Cancer Research : CR, 2022).

Assays:
[1] = system: patients with advanced solid tumors; design: method as in ref 27 (a number printed in a supplementary file, which may have a reference list of its own: not looked up in the article's list); settings: cited from earlier work
[2] = design: method as in PMID 32696585; settings: cited from earlier work
[3] = system: recurrent low-grade serous carcinoma of the ovary or peritoneum; design: method as in ref 33,34 (a number printed in a supplementary file, which may have a reference list of its own: not looked up in the article's list); settings: 8/52 patients; cited from earlier work
[4] = system: metastatic biliary tract cancers; design: method as in ref 33,34 (a number printed in a supplementary file, which may have a reference list of its own: not looked up in the article's list); settings: 3/25 response evaluable patients; cited from earlier work
KRAS-mutant NSCLC = system: KRAS-mutant NSCLC; design: method as in ref 24 (a number printed in a supplementary file, which may have a reference list of its own: not looked up in the article's list); settings: cited from earlier work
[5] = only detectable minor component in blood; cited from earlier work

Structure (SMILES): Cn1ncc(Cl)c1-c1cc(C(=O)N[C@H](CN)Cc2ccc(F)c(F)c2)oc1Cl [GSK2141795]
- RP2D for single agent [1]: 75 mg/day

Structure (SMILES): O=C(c1ccc(F)c(F)c1Nc1ccc(I)cc1F)N1CC(O)([C@@H]2CCCCN2)C1 [cobimetinib]
- total AUC0−∞ lower, severe hepatic impairment vs normal hepatic function [2]: ~30%
- unbound AUC0−∞ higher, severe hepatic impairment vs normal hepatic function [2]: ~2 fold

Structure (SMILES): Cn1cnc2c(F)c(Nc3ccc(Br)cc3Cl)c(C(=O)NOCCO)cc21 [selumetinib]
- overall response rate [3]: 15%
- overall response rate [4]: 12%

Structure (SMILES): CC(=O)O[C@@]12CO[C@@H]1C[C@H](O)[C@@]1(C)C(=O)[C@H](O)C3=C(C)[C@@H](OC(=O)[C@H](O)[C@@H](NC(=O)OC(C)(C)C)c4ccccc4)C[C@@](O)([C@@H](OC(=O)c4ccccc4)[C@H]21)C3(C)C [docetaxel]
- median PFS (KRAS-mutant NSCLC): 11.4 weeks
- overall response rate (ORR) (KRAS-mutant NSCLC): 12%

Structure (SMILES): Cc1c(=O)n(C)c(Nc2ccc(I)cc2F)c2c(=O)n(C3CC3)c(=O)n(-c3cccc(N)c3)c12 [M5]
- share of the blood radioactivity [5]: < 7%
